Reference: patent US20050250742A1 (Pfizer Inc., priority 2004, published 2005)

What follows are compounds tested against T1, PIN1-CD (catalytic peptidyl-prolyl isomerase domain, devoid of the PIN1 WW domain) (Homo sapiens, UniProt Q13526) (assay: Pin1 peptidyl-prolyl isomerase assay (protease-coupled, spectrophotometric)). Details: catalytic PPIase domain without WW domain; 15° C., pH 7.5, 100 μM Suc-AEPF-pNA.
T1 construct: PIN1 peptide containing the catalytic peptidyl-prolyl isomerase domain but devoid of the PIN1 WW domain
T1 sequence (Q13526 52-163 limits assumed): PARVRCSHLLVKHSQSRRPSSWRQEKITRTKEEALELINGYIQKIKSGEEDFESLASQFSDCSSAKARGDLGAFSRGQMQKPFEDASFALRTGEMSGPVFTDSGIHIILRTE
Assay type: biochemical
Text: PIN1 is a phosphorylation dependent peptidyl-prolyl isomerase. The PIN1 assay is a spectrophotometric assay based on the coupled chymotrypsin or subtilisin catalyzed, cis-trans conformation dependent cleavage of a para-nitroanaline containing peptide substrate. […] Cleavage of the isomerized peptide releases para-nitroanaline, which can be monitored by an increase in absorbance at 390 nm. The PIN1 peptide substrate, succinyl-[…]-proline-phenylalanine-paranitroaniline (Suc-AEPF-pNA) (Bachem), is kept in a predominantly cis conformation with an anhydrous TFE/LiCl solvent mixture.
Upon dilution into an aqueous assay mixture containing PIN1, the peptide substrate undergoes PIN1 catalyzed isomerization to the trans conformation. […] To minimize the spontaneous isomerization of the peptide substrate, reactions are performed at 15° C. A typical reaction contains 25 mM MOPS pH 7.5, 0.5 mM TCEP, 2% DMSO, 5 μl of a 25 mg/ml solution of subtilisin Carlsberg, 50 nM PIN1-PPiase, and 100 μM Suc-AEPF-pNA peptide substrate. Reactions are cooled to 15° C. and initiated with the addition of Suc-AEPF-pNA. The absorbance at 390 nm is monitored continuously until all substrate has been converted to the cleaved product. […] The rate constant k is linearly proportional to the concentration of active enzyme present in the assay mixture once the rate constant for the spontaneous isomerization is subtracted. […] Therefore, during inhibition experiments, the IC50, for non-tight binding inhibitors, is essentially the inhibition constant Ki.
(§1) In Table 1, the Ki data reported under the PIN1—CD heading corresponds to testing with PIN1 peptide containing the catalytic peptidyl-prolyl isomerase domain but devoid of the PIN1 WW domain. Similarly, the dissociation constant (Kd) data under PIN1-CD refers to testing with a peptide containing the catalytic PIN1 domain but devoid of the PIN1 WW domain.

| Ki [nM] | Compound |
| --- | --- |
| < 10000 | O=C(N[C@@H](COP(=O)(O)O)CC1CCCCC1)c1ccc2ccccc2c1 [Example 33, Phosphoric acid mono-{(R)-3-cyclohexyl-2-[(1-naphthalen-2-yl-methanoyl)-amino]-propyl}ester] |
| < 10000 | CN(C)c1cccc2c(S(=O)(=O)N[C@@H](COP(=O)(O)O)Cc3cccc(F)c3)cccc12 [Example 42, Phosphoric acid mono-[(R)-2-(5-dimethylamino-naphthalene-1-sulfonylamino)-3-(3-fluoro-phenyl)-propyl]ester] |
| < 1000 | O=C(N[C@@H](COP(=O)(O)O)Cc1cccc(F)c1)c1ccc2nc[nH]c2c1 [Example 61, Phosphoric acid mono-[(R)-2-[(1-3H-benzoimidazol-5-yl-methanoyl)-amino]-3-(3-fluoro-phenyl)-propyl]ester] |
| < 10000 | CC(=O)N[C@@H](COP(=O)(O)O)Cc1ccccc1 [Example 25-40, Phosphoric acid mono-(2-acetylamino-3-phenyl-propyl)ester] |
| < 1000 | O=C(N[C@H](Cc1cccc(F)c1)CP(=O)(O)O)c1cc2ccccc2s1 [Example 98, [2-[(Benzo[b]thiophene-2-carbonyl)-amino]-3-(3-fluoro-phenyl)-propyl]-phosphonic acid] |
| < 1000 | O=C(OC(CCCc1ccccc1)CCCc1ccccc1)[C@@H]1CCCCN1C(=O)N[C@@H](COP(=O)(O)O)Cc1cccc(F)c1 [Example 79, (S)-1-[(R)-2-(3-Fluoro-phenyl)-1-phosphonooxymethyl-ethylcarbamoy]-piperidine-2-carboxylic acid 4-phenyl-1-(3-phenyl-propyl)-butyl ester] |
| < 1000 | CCN(CC)c1ccc2cc(C(=O)N[C@@H](COP(=O)(O)O)Cc3cccc(F)c3)c(=O)oc2c1 [Example 25-33, Phosphoric acid mono-[(R)-2-{[1-(diethylamino-oxo-2H-chromen-3-yl)-methanoyl]-amino}-3-(3-fluoro-phenyl)-propyl]ester] |

Continued, compound first:

| Compound | Ki [nM] |
| --- | --- |
| O=C(N[C@@H](COP(=O)(O)O)Cc1ccccc1)c1cccc(Cl)c1 [Example 25-8, Phosphoric acid mono-(2-{[1-(3-chloro-phenyl)-methanoyl]-amino}-3-phenyl-propyl) ester] | < 1000 |
| CC(=O)OCOP(=O)(OCOC(C)=O)OC[C@@H](Cc1cccc(F)c1)NC(=O)c1cc2ccccc2s1 [Example 85, Acetic acid acetoxymethoxy-[(R)-2-[(1-benzo[b]thiophen-2-yl-methanoyl)-amino]-3-(3-fluoro-phenyl)-propoxy]-phosphoryloxymethyl ester] | < 100000 |
| CN(C)c1cccc2c(S(=O)(=O)N[C@@H](COP(=O)(Oc3ccccc3)Oc3ccccc3)Cc3cccc(F)c3)cccc12 [Example 86, Phosphoric acid (R)-2-(5-dimethylamino-naphthalene-1-sulfonylamino)-3-(3-fluoro-phenyl)-propyl ester diphenyl ester] | < 100000 |
| CC(C)(C)C(=O)N[C@@H](COP(=O)(O)O)Cc1ccccc1 [Example 25-16, Phosphoric acid mono-[(R)-2-(2,2-dimethyl-propanoylamino)-3-phenyl-propyl]ester] | < 1000 |

What follows are compounds tested against T2, PIN1-CD (catalytic PIN1 domain, devoid of the PIN1 WW domain) (Homo sapiens, UniProt Q13526) (assay: Dissociation constant (Kd) with PIN1 catalytic domain). Details: peptide containing the catalytic PIN1 domain.
T2 construct: PIN1 peptide containing the catalytic peptidyl-prolyl isomerase domain but devoid of the PIN1 WW domain
T2 sequence (Q13526 52-163 limits assumed): as above
Assay type: binding
Text: as §1

| Kd [nM] | Compound |
| --- | --- |
| < 100000 | NS(=O)(=O)OC[C@@H](Cc1ccccc1)NC(=O)c1ccc2ccccc2c1 [Example 72, Sulfamic acid 2-[(1-naphthalen-2-yl-methanoyl)-amino]-3-phenyl-propyl ester] |
| < 1000 | O=C(N[C@@H](COP(=O)(O)O)Cc1ccccc1)c1cc2ccccc2[nH]1 [Example 25-18, Phosphoric acid mono-{2-[(1-1H-indol-2-yl-methanoyl)-amino]-3-phenyl-propyl}ester] |
| < 1000 | O=C(N[C@@H](COP(=O)(O)O)Cc1ccccc1)c1ccc2ccccc2c1O [Example 25-21] |
| < 1000 | O=C(N[C@@H](COP(=O)(O)O)Cc1ccccc1)c1cc2ccccc2cc1O [Example 25-22, Phosphoric acid mono-(2-{[1-(3-hydroxy-naphthalen-2-yl)-methanoyl]-amino}-3-phenyl-propyl)ester] |
| < 1000 | O=C(N[C@@H](COP(=O)(O)O)Cc1ccccc1)c1ccc2cc(O)ccc2c1 [Example 25-20, Phosphoric acid mono-(2-{[1-(6-hydroxy-naphthalen-2-yl)-methanoyl]-amino}-3-phenyl-propyl)ester] |
| < 1000 | O=C(N[C@@H](COP(=O)(O)O)Cc1ccccc1)c1cc2ccccc2o1 [Example 25-19, Phosphoric acid mono-{2-[(1-benzofuran-2-yl-methanoyl)-amino]-3-phenyl-propyl}ester] |
| < 1000 | COc1ccc2cc(C(=O)N[C@@H](COP(=O)(O)O)Cc3ccccc3)ccc2c1 [Example 25-25, Phosphoric acid mono-(2-{[1-(6-methoxy-naphthalen-2-yl)-methanoyl]-amino}-3-phenyl-propyl)ester] |
| < 10000 | CN(C(=O)c1ccc2ccccc2c1)C(COP(=O)(O)O)Cc1ccccc1 (stereo not drawn) [Example 58, Phosphoric acid mono-{[methyl-(1-naphthalen-2-yl-methanoyl)-amino]-phenyl-propyl}ester] |
| < 1000 | O=C(N[C@@H](COP(=O)(O)O)Cc1ccccc1)c1ccc2ccccc2c1Br [Example 25-24, Phosphoric acid mono-(2-{[1-(1-bromo-naphthalen-2-yl)-methanoyl]amino}-3-phenyl-propyl)ester] |

Continued, compound first:

| Compound | Kd [nM] |
| --- | --- |
| O=C(N[C@@H](COP(=O)(O)O)Cc1ccccc1)c1ccc(Oc2cc(Cl)cc(Cl)c2)o1 [Example 25-4, Phosphoric acid mono-[2-({1-[5-(3,5-dichloro-phenoxy)-furan-2-yl]-methanoyl}-amino)-3-phenyl-propyl]ester] | < 1000 |
| COc1c(C(=O)N[C@@H](COP(=O)(O)O)Cc2ccccc2)csc1Cl [Example 25-6, Phosphoric acid mono-(2{[1-(5-chloro-4-methoxy-thiophen-3-yl)-methanoyl]-amino}-3-phenyl-propyl)ester] | < 1000 |
| COc1cc(NC(=O)N[C@@H](COP(=O)(O)O)Cc2ccccc2)cc(OC)c1 [Example 23d, Phosphoric acid mono-{2-[3-(3,5dimethoxy-phenyl)-ureido]-3-phenyl-propyl}ester] | < 1000 |
| O=C(Nc1ccccc1Oc1ccccc1)N[C@@H](COP(=O)(O)O)Cc1ccccc1 [Example 23b, Phosphoric acid mono-{2-[3-(2-phenoxy-phenyl)-ureido]-3-phenyl-propyl}ester] | < 1000 |
| COc1cc(C)cc(NC(=O)N[C@@H](COP(=O)(O)O)Cc2ccccc2)c1 [Example 23c, Phosphoric acid mono-{2-[3-(3-methoxy-5-methyl-phenyl)-ureido]-3-phenyl-propyl}ester] | < 1000 |
| O=C(N[C@@H](COP(=O)(O)O)Cc1ccccc1)c1cnc2ccccc2n1 [Example 25-11, Phosphoric acid mono-{3-phenyl-2-[(1-quinoxalin-2-yl-methanoyl)-amino]-propyl}ester] | < 1000 |
| O=C(N[C@@H](COP(=O)(O)O)Cc1ccccc1)c1ccccc1O [Example 25-13, Phosphoric acid mono-(2-{[1-(2-hydroxy-phenyl)-methanoyl]-amino}-3-phenyl-propyl)ester] | < 10000 |
| O=C(N[C@@H](COP(=O)(O)O)Cc1ccccc1)c1sccc1Cl [Example 25-12] | < 1000 |
| O=C(N[C@@H](COP(=O)(O)O)Cc1ccccc1)c1ccc(Cl)c(Cl)c1 [Example 25-5, Phosphoric acid mono-(2-{[1-(3,4-dichloro-phenyl)-methanoyl]amino}-3-phenyl-propyl)ester] | < 1000 |
| O=C(N[C@@H](COP(=O)(O)O)Cc1ccccc1)c1ccco1 [Example 25-14, Phosphoric acid mono-{2-[(1-furan-2-yl-methanoyl)-amino]-3-phenyl-propyl}ester] | < 10000 |
| O=C(N[C@@H](COP(=O)(O)O)Cc1ccccc1)c1cc2ccccc2[s+]1[O-] (stereo in doubt) [25-2′, Phosphoric acid mono-(2-{[1-(1-oxo-benzo[b]thiophen-2-yl)-methanoyl]-amino}-3-phenyl-propyl)ester] | < 1000 |
| Cc1nn(-c2ccccc2)nc1C(=O)N[C@@H](COP(=O)(O)O)Cc1ccccc1 [Example 25-7, Phosphoric acid mono-(2-{[1-(5-methyl-2-phenyl-2H-[1,2,3]triazol-4-yl)-methanoyl]-amino}-3-phenyl-propyl)ester] | < 1000 |
| O=C(N[C@@H](COP(=O)(O)O)Cc1ccccc1)c1cccc2ccccc12 [Example 25-10, Phosphoric acid mono-{2-[(1-naphthalen-1-yl-methanoyl)-amino]-3-phenyl-propyl}ester] | < 1000 |
